molecular target: HIV-1 integrase (Human immunodeficiency virus type 1 group M subtype B, UniProt P04585); assay: HIV-1 integrase inhibition assay (microtiter plate, substrate DNA/target DNA, OD 405 nm); format: biochemical; details: HIV-1 integrase; concentration of the compound at percent inhibition 50%; OD 405 nm
Protocol: The inhibitory effects of the compounds of the present invention for HIV-1 integrase have been determined by the assay described below.
(1) Preparation of DNA solutions.
Substrate DNA and target DNA, which sequences were indicated below, were synthesized by Amersham Pharmacia Biotech and dissolved in KTE buffer (composition: 100 mM KCl, 1 mM EDTA, 10 mM Tris-HCl (pH 7.6)) at concentration of 2 pmol/μl and 5 pmol/μl, respectively. The DNA solutions were annealed with each complement by slowly cooling after heating.
(Substrate DNA) • 5′-Biotin-ACCCTTTTAGTCAGTGTGGAAAATCTCTAGCAGT-3′ • 3-GAAAATCAGTCACACCTTTTAGAGATCGTCA-5′
5′-TGACCAAGGGCTAATTCACT-Dig-3′
3′-Dig-ACTGGTTCCCGATTAAGTGA-5′
(2) Calculations of the percent inhibitions (the IC50 values of test compounds)
Streptavidin, obtained from Vector Laboratories, was dissolved in 0.1 M carbonate buffer (composition: 90 mM Na2CO3, 10 mM NaHCO3) at concentration of 40 μg/ml. After coating each well of microtiter plates (obtained from NUNC) with 50 μl of the above solution at 4° C. over night, each well was washed twice with PBS (composition: […], 0.27 mM KCl, 0.43 mM Na2HPO4, 0.14 mM KH2PO4) and blocked with 300 μl of 1% skim milk in PBS for 30 min. Additionally, each well was washed twice with PBS and added 50 μl of substrate DNA solution (2 pmol/μl). The microtiter plates were kept at room temperature for 30 min. Then, each well was washed twice with PBS and once with H2O.
Subsequently, in the each well prepared above were added 45 μl of the reaction buffer prepared from 12 μl of the buffer (composition: 150 mM MOPS (pH 7.2), 75 mM MnCl2, 50 mM 2-mercaptoethanol, 25% glycerol, 500 μg/ml bovine serum albumin-fraction V), 1 μl of target DNA (5 pmol/μl), and 32 μl of the distilled water. Additionally, 6 μl of either a test compound in DMSO or DMSO for positive control (PC) was mixed with the above reaction buffer, then 9 μl of an integrase solution (30 pmol) was added and mixed well. In the well of negative control (NC) was added 9 μl of the integrase dilution buffer (composition: 20 mM MOPS (pH7.2), 400 mM potassium glutamate, 1 mM EDTA, 0.1% NP-40, 20% glycerol, 1 mM DTT, 4M urea).
The microtiter plates were incubated at 30° C. for 1 hour. The reaction solution was removed and each well was washed twice with PBS. Subsequently, each well of the microtiter plates was filled with 100 μl of anti-digoxigenin antibody labeled with alkaline phosphatase (Sheep Fab fragment: obtained from Boehringer) and incubated at 30° C. for 1 hour. Then, each well was washed twice with 0.05% Tween20 in PBS and once with PBS. Next, 150 μl of the Alkaline phosphatase reaction buffer (composition: 10 mM p-Nitrophenylphosphate (obtained from Vector Laboratories), 5 mM MgCl2, 100 mM NaCl, 100 mM Tris-HCl (pH 9.5)) was added in each well. The microtiter plates were incubated at 30° C. for 2 hours and the reaction was terminated by the addition of 50 μl of 1 N NaOH solution. The optical density (OD) at 405 nm of each well was measured and the percent inhibition was determined by the following expression. The percent inhibition (%)=100[1−{(C abs.−NC abs.)/(PC abs.−NC abs.)}] • C abs.; the OD of the well of the compounds • NC abs. the OD of the negative control (NC) • PC abs.: the OD of the positive control (PC)
The following Compounds (X-1 to 3) were used in order to compare an activity of the present compound with that of the compounds (X-1 to 3). Compound No. in the Table 1 is the same as compound No. of the above example.

Row | SMILES | IC50 [µg/mL]
1 | O=C(O)C(=O)c1c(F)ccc(COc2ccc(C=C(O)C(=O)O)nc2)c1F [Compound I-17, 3-[5-(3-Carboxyoxalyl-2,4-difluorobenzyloxy)-pyridin-2-yl]-2-hydroxy acrylic acid] | 3.4

same assay, conditions: HIV-1 integrase; concentration of the compound at percent inhibition 50%; OD 405 nm; read-out: IC50 (μg/ml) (converted)

Row | SMILES | IC50 [nM]
2 | O=C(O)C(O)=Cc1cc(CCc2ccccc2)ncn1 [Compound I-25, 3-[6-(2-Phenylethyl)pyrimidin-4-yl)-2-hydroxy acrylic acid] | 481
3 | O=C(O)C(O)=Cc1ccc(OCc2ccccc2)cn1 [Compound I-3, 3-(5-Benzyloxypyridin-2-yl)-2-hydroxy acrylic acid] | 1140
4 | O=C(O)/C(O)=C/c1ccc(OCc2ccc(C(F)(F)F)cc2)cn1 [Compound I-49, 3-[5-(4-Trifluoromethylbenzyloxy)pyridin-2-yl]-2-hydroxy acrylic acid] | 16500
5 | O=C(O)C(O)=Cc1ccc(OCc2ccc(F)cc2F)cn1 [Compound I-47, 3-[5-(2,4-Difluorobenzyloxy)pyridin-2-yl]-2-hydroxy acrylic acid] | 1630
6 | CCOC(=O)C(O)=Cc1ccc(OCc2ccc(F)cc2F)cn1 [Compound I-46, 3-[5-(2,4-Difluorobenzyloxy)pyridin-2-yl]-2-hydroxy acrylic acid ethyl ester] | 1640
7 | O=C(O)/C(O)=C/c1nnc(CCc2ccccc2)s1 [Compound I-35, 3-[5-(2-Phenylethyl)[1,3,4]thiadiazol-2-yl)-2-hydroxy acrylic acid] | 1590
8 | CCOC(=O)C(O)=Cc1cc(CCc2ccccc2)ncn1 [Compound I-24, 3-[6-(2-Phenylethyl)pyrimidin-4-yl)-2-hydroxy acrylic acid ethyl ester] | 1010
9 | O=C(O)/C(O)=C/c1cnc(CCc2ccccc2)cn1 [Compound I-27, 3-[5-(2-Phenylethyl)pyradin-2-yl]-2-hydroxy acrylic acid] | 2520
10 | O=C(O)/C(O)=C/c1ccc(OCc2ccccc2)cc1 [Compound X-3, reference compound] | > 370000
11 | CC(C)CCOc1ccc(/C=C(\O)C(=O)O)nc1 [Compound I-9, 3-(5-Isopentoxypyridin-2-yl)-2-hydroxy acrylic acid] | 11500
12 | OC(=Cc1ccc(OCc2ccccc2)cn1)c1nc[nH]n1 [Compound I-14, 2-(5-Benzyloxypyridin-2-yl)-1-(1H-[1,2,4]triazol-3-yl) ethenol] | 3230
13 | O=C(O)/C(O)=C/c1ccc(OCC2CCCCC2)cn1 [Compound I-7, 3-[5-(Cyclohexylmethoxy)pyridin-2-yl]-2-hydroxy acrylic acid] | 4690
14 | COc1cc(/C=C(\O)C(=O)O)ccc1OCc1ccccc1 [Compound X-1, reference compound] | > 333000
15 | O=C(O)/C(O)=C/c1ccc2ccccc2c1 [Compound X-2, reference compound] | > 467000
16 | CCOC(=O)C(O)=Cc1ccc(OCc2ccccc2)cn1 [Compound I-2, 3-(5-Benzyloxypyridin-2-yl)-2-hydroxy acrylic acid ethyl ester] | 1770
17 | OC(=Cc1ccc(OCc2ccccc2)cn1)c1nccs1 [Compound I-15, 2-(5-Benzyloxypyridin-2-yl)-1-thiazol-2-yl ethenol] | 10200

same assay, conditions: besides the compounds of the IC50 table

Row | SMILES | inhibitory effect for HIV-1 integrase, stated in words (compound having high activity)
18 | O=C(O)/C(O)=C/c1cc(C(F)Cc2ccccc2)ncn1 (stereo not shown) [Compound I-115] | high activity
19 | O=C(O)/C(O)=C/c1ncc(CCc2ccccc2)o1 [Compound I-117] | high activity
20 | O/C(=C\c1cc(CCc2ccc(F)cc2)ncn1)c1ncccn1 [Compound I-109] | high activity
21 | O/C(=C\c1cc(CCc2ccccc2)ncn1)c1ncccn1 [Compound I-110] | high activity
22 | O/C(=C\c1cc(CCc2ccccc2)ncn1)c1ccccn1 [Compound I-111] | high activity
23 | O=C(O)c1ccc(/C(O)=C/c2cc(CCc3ccccc3)ncn2)nc1 [Compound I-114] | high activity
24 | Cc1cc(/C(O)=C/c2cc(CCc3ccccc3)ncn2)no1 [Compound I-103] | high activity
25 | O=C(O)/C(O)=C/c1ncc(CCc2ccccc2)s1 [Compound I-119] | high activity
